Experiments:
[1] = test system: late watergrass; experiment: Test Example 1: herbicidal activity, application before weed generation under submerged conditions (Table 16, symbol A); format: in vivo, late watergrass (Echinochloa oryzicola); details: 320 g/ha applied herbicide
Outline: (§1)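 Emulsion formulation, water-diluted to set dose, was put onto the flooded surface (4 cm depth, alluvial soil) the same day weeds were sown and 2.5-leaf rice transplanted. After 3 weeks at 25-30 °C under glass, each species was rated 0 (≤5% kill) to 5 (≥90% kill).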

[2] = test system: Japanese bulrush; experiment: Test Example 1: herbicidal activity, application before weed generation under submerged conditions (Table 16, symbol B); format: in vivo, Japanese bulrush (Schoenoplectus juncoides); details: 320 g/ha applied herbicide
Outline: as §1

[3] = test system: oval-leafed pondweed; experiment: Test Example 1: herbicidal activity, application before weed generation under submerged conditions (Table 16, symbol C); format: in vivo, oval-leafed pondweed (Monochoria vaginalis); details: 320 g/ha applied herbicide
Outline: as §1

[4] = test system: barnyard grass; experiment: Test Example 3: herbicidal effect by foliage application, Wagner pot (Table 18, symbol H); format: in vivo, barnyard grass (Echinochloa crus-galli); details: amount of applied herbicide 320 g/ha
Outline: (§2)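 Plants were sown in alluvial soil held under 0.1–0.5 cm standing water and grown 14 days in a greenhouse at 25–30 °C. An emulsifiable formulation, water-diluted to the set dose, was then sprayed onto the foliage, and effects were scored three weeks later using previously defined criteria.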

[5] = test system: Chinese sprangletop; experiment: Test Example 3: herbicidal effect by foliage application, Wagner pot (Table 18, symbol D); format: in vivo, chinese sprangletop (Leptochloa chinensis); details: amount of applied herbicide 320 g/ha
Outline: as §2

[6] = test system: rice flat sedge; experiment: Test Example 3: herbicidal effect by foliage application, Wagner pot (Table 18, symbol E); format: in vivo, rice flat sedge (Cyperus iria); details: amount of applied herbicide 320 g/ha
Outline: as §2

[7] = test system: southern crabgrass; experiment: Test Example 4: herbicidal effect by soil treatment (Table 19, symbol F); format: in vivo, southern crabgrass (Digitaria ciliaris); details: amount of applied herbicide 320 g/ha
Outline: (§3)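 Three weeks of greenhouse growth at 25° C. to 30° C. followed a uniform surface spray of water-diluted emulsion at a predetermined herbicide amount. Seeds had been sown beforehand under about 1.5 cm of sterilized diluvial soil. Grading followed criteria set out in an earlier test.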

[8] = test system: green foxtail; experiment: Test Example 4: herbicidal effect by soil treatment (Table 19, symbol G); format: in vivo, green foxtail (Setaria viridis); details: amount of applied herbicide 320 g/ha
Outline: as §3

[9] = test system: barnyard grass; experiment: Test Example 4: herbicidal effect by soil treatment (Table 19, symbol H); format: in vivo, barnyard grass (Echinochloa crus-galli); details: amount of applied herbicide 320 g/ha
Outline: as §3

[10] = test system: wild oat; experiment: Test Example 4: herbicidal effect by soil treatment (Table 19, symbol I); format: in vivo, wild oat (Avena fatua); details: amount of applied herbicide 320 g/ha
Outline: as §3

[11] = test system: blackgrass; experiment: Test Example 4: herbicidal effect by soil treatment (Table 19, symbol J); format: in vivo, blackgrass (Alopecurus myosuroides); details: amount of applied herbicide 320 g/ha
Outline: as §3

[12] = test system: Italian ryegrass; experiment: Test Example 4: herbicidal effect by soil treatment (Table 19, symbol K); format: in vivo, Italian ryegrass (Lolium multiflorum); details: amount of applied herbicide 320 g/ha
Outline: as §3

[13] = test system: windgrass; experiment: Test Example 4: herbicidal effect by soil treatment (Table 19, symbol L); format: in vivo, windgrass (Apera spica-venti); details: amount of applied herbicide 320 g/ha
Outline: as §3

[14] = test system: velvetleaf; experiment: Test Example 4: herbicidal effect by soil treatment (Table 19, symbol M); format: in vivo, velvetleaf (Abutilon theophrasti); details: amount of applied herbicide 320 g/ha
Outline: as §3

[15] = test system: redroot pigweed; experiment: Test Example 4: herbicidal effect by soil treatment (Table 19, symbol N); format: in vivo, redroot pigweed (Amaranthus retroflexus); details: amount of applied herbicide 320 g/ha
Outline: as §3

[16] = test system: lambsquarters; experiment: Test Example 4: herbicidal effect by soil treatment (Table 19, symbol O); format: in vivo, lambsquarters (Chenopodium album); details: amount of applied herbicide 320 g/ha
Outline: as §3

[17] = test system: chickweed; experiment: Test Example 4: herbicidal effect by soil treatment (Table 19, symbol P); format: in vivo, common chickweed (Stellaria media); details: amount of applied herbicide 320 g/ha
Outline: as §3

[18] = test system: persian speedwell; experiment: Test Example 4: herbicidal effect by soil treatment (Table 19, symbol R); format: in vivo, Persian speedwell (Veronica persica); details: amount of applied herbicide 320 g/ha
Outline: as §3

[19] = test system: southern crabgrass; experiment: Test Example 5: herbicidal effect by foliage application, plastic box (Table 20, symbol F); format: in vivo, southern crabgrass (Digitaria ciliaris); details: foliage application, AAH 320 g/ha, evaluated three weeks after application
Outline: (§4)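 Plants sown in sterilized diluvial soil and grown 14 days in a greenhouse at 25° C to 30° C, then sprayed on the foliage with the compound's emulsion diluted in water to a predetermined herbicide amount. Injury to weeds and crops scored three weeks after application on a visual rating scale.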

[20] = test system: green foxtail; experiment: Test Example 5: herbicidal effect by foliage application, plastic box (Table 20, symbol G); format: in vivo, green foxtail (Setaria viridis); details: foliage application, AAH 320 g/ha, evaluated three weeks after application
Outline: as §4

[21] = test system: barnyard grass; experiment: Test Example 5: herbicidal effect by foliage application, plastic box (Table 20, symbol H); format: in vivo, barnyard grass (Echinochloa crus-galli); details: foliage application, AAH 320 g/ha, evaluated three weeks after application
Outline: as §4

[22] = test system: wild oat; experiment: Test Example 5: herbicidal effect by foliage application, plastic box (Table 20, symbol I); format: in vivo, wild oat (Avena fatua); details: foliage application, AAH 320 g/ha, evaluated three weeks after application
Outline: as §4

[23] = test system: blackgrass; experiment: Test Example 5: herbicidal effect by foliage application, plastic box (Table 20, symbol J); format: in vivo, blackgrass (Alopecurus myosuroides); details: foliage application, AAH 320 g/ha, evaluated three weeks after application
Outline: as §4

[24] = test system: Italian ryegrass; experiment: Test Example 5: herbicidal effect by foliage application, plastic box (Table 20, symbol K); format: in vivo, Italian ryegrass (Lolium multiflorum); details: foliage application, AAH 320 g/ha, evaluated three weeks after application
Outline: as §4

[25] = test system: windgrass; experiment: Test Example 5: herbicidal effect by foliage application, plastic box (Table 20, symbol L); format: in vivo, windgrass (Apera spica-venti); details: foliage application, AAH 320 g/ha, evaluated three weeks after application
Outline: as §4

[26] = test system: velvetleaf; experiment: Test Example 5: herbicidal effect by foliage application, plastic box (Table 20, symbol M); format: in vivo, velvetleaf (Abutilon theophrasti); details: foliage application, AAH 320 g/ha, evaluated three weeks after application
Outline: as §4

[27] = test system: redroot pigweed; experiment: Test Example 5: herbicidal effect by foliage application, plastic box (Table 20, symbol N); format: in vivo, redroot pigweed (Amaranthus retroflexus); details: foliage application, AAH 320 g/ha, evaluated three weeks after application
Outline: as §4

[28] = test system: lambsquarters; experiment: Test Example 5: herbicidal effect by foliage application, plastic box (Table 20, symbol O); format: in vivo, lambsquarters (Chenopodium album); details: foliage application, AAH 320 g/ha, evaluated three weeks after application
Outline: as §4

[29] = test system: chickweed; experiment: Test Example 5: herbicidal effect by foliage application, plastic box (Table 20, symbol P); format: in vivo, common chickweed (Stellaria media); details: foliage application, AAH 320 g/ha, evaluated three weeks after application
Outline: as §4

[30] = test system: persian speedwell; experiment: Test Example 5: herbicidal effect by foliage application, plastic box (Table 20, symbol R); format: in vivo, Persian speedwell (Veronica persica); details: foliage application, AAH 320 g/ha, evaluated three weeks after application
Outline: as §4

Cc1nn(C)c(=O)c(-c2c(-c3ccc([S+](C)[O-])cc3)sc3ccc(F)cc23)c1O (stereo not drawn) [2-256]
Herbicidal effect on A: late watergrass (grade 0-5) [1]: 2 (Herbicidal rate of 20% or more and less than 40%)
Herbicidal effect on B: Japanese bulrush (grade 0-5) [2]: 0 (Herbicidal rate of 5% or less (almost no effect))
Herbicidal effect on C: oval-leafed pondweed (grade 0-5) [3]: 0 (Herbicidal rate of 5% or less (almost no effect))
herbicidal effect on H: barnyard grass [4]: 5 (Herbicidal rate of 90% or more (almost completely withered))
herbicidal effect on D: Chinese sprangletop [5]: 4 (Herbicidal rate of 70% or more and less than 90%)
herbicidal effect on E: rice flat sedge [6]: 4 (Herbicidal rate of 70% or more and less than 90%)
herbicidal effect on F: southern crabgrass [7]: 0 (Herbicidal rate of 5% or less (almost no effect))
herbicidal effect on G: green foxtail [8]: 0 (Herbicidal rate of 5% or less (almost no effect))
herbicidal effect on H: barnyard grass [9]: 0 (Herbicidal rate of 5% or less (almost no effect))
herbicidal effect on I: wild oat [10]: 1 (Herbicidal rate of 5% or more and less than 20%)
herbicidal effect on J: blackgrass [11]: 0 (Herbicidal rate of 5% or less (almost no effect))
herbicidal effect on K: Italian ryegrass [12]: 3 (Herbicidal rate of 40% or more and less than 70%)
herbicidal effect on L: windgrass [13]: 0 (Herbicidal rate of 5% or less (almost no effect))
herbicidal effect on M: velvetleaf [14]: 0 (Herbicidal rate of 5% or less (almost no effect))
herbicidal effect on N: redroot pigweed [15]: 3 (Herbicidal rate of 40% or more and less than 70%)
herbicidal effect on O: lambsquarters [16]: 0 (Herbicidal rate of 5% or less (almost no effect))
herbicidal effect on P: chickweed [17]: 3 (Herbicidal rate of 40% or more and less than 70%)
herbicidal effect on R: persian speedwell [18]: 4 (Herbicidal rate of 70% or more and less than 90%)
F: southern crabgrass, herbicidal effect (criteria 0-5) [19]: 4 (Herbicidal rate of 70% or more and less than 90%)
G: green foxtail, herbicidal effect (criteria 0-5) [20]: 3 (Herbicidal rate of 40% or more and less than 70%)
H: barnyard grass, herbicidal effect (criteria 0-5) [21]: 1 (Herbicidal rate of 5% or more and less than 20%)
I: wild oat, herbicidal effect (criteria 0-5) [22]: 5 (Herbicidal rate of 90% or more (almost completely withered))
J: blackgrass, herbicidal effect (criteria 0-5) [23]: 3 (Herbicidal rate of 40% or more and less than 70%)
K: Italian ryegrass, herbicidal effect (criteria 0-5) [24]: 5 (Herbicidal rate of 90% or more (almost completely withered))
L: windgrass, herbicidal effect (criteria 0-5) [25]: 5 (Herbicidal rate of 90% or more (almost completely withered))
M: velvetleaf, herbicidal effect (criteria 0-5) [26]: 4 (Herbicidal rate of 70% or more and less than 90%)
N: redroot pigweed, herbicidal effect (criteria 0-5) [27]: 5 (Herbicidal rate of 90% or more (almost completely withered))
O: lambsquarters, herbicidal effect (criteria 0-5) [28]: 5 (Herbicidal rate of 90% or more (almost completely withered))
P: chickweed, herbicidal effect (criteria 0-5) [29]: 5 (Herbicidal rate of 90% or more (almost completely withered))
R: persian speedwell, herbicidal effect (criteria 0-5) [30]: 5 (Herbicidal rate of 90% or more (almost completely withered))

CSCc1ccc(-c2sc3ccc(F)cc3c2-c2c(O)c(C)nn(C)c2=O)cc1 [2-317]
Herbicidal effect on A: late watergrass (grade 0-5) [1]: 3 (Herbicidal rate of 40% or more and less than 70%)
Herbicidal effect on B: Japanese bulrush (grade 0-5) [2]: 0 (Herbicidal rate of 5% or less (almost no effect))
Herbicidal effect on C: oval-leafed pondweed (grade 0-5) [3]: 0 (Herbicidal rate of 5% or less (almost no effect))
herbicidal effect on H: barnyard grass [4]: 5 (Herbicidal rate of 90% or more (almost completely withered))
herbicidal effect on D: Chinese sprangletop [5]: 2 (Herbicidal rate of 20% or more and less than 40%)
herbicidal effect on E: rice flat sedge [6]: 5 (Herbicidal rate of 90% or more (almost completely withered))
herbicidal effect on F: southern crabgrass [7]: 4 (Herbicidal rate of 70% or more and less than 90%)
herbicidal effect on G: green foxtail [8]: 4 (Herbicidal rate of 70% or more and less than 90%)
herbicidal effect on H: barnyard grass [9]: 5 (Herbicidal rate of 90% or more (almost completely withered))
herbicidal effect on I: wild oat [10]: 0 (Herbicidal rate of 5% or less (almost no effect))
herbicidal effect on J: blackgrass [11]: 1 (Herbicidal rate of 5% or more and less than 20%)
herbicidal effect on K: Italian ryegrass [12]: 4 (Herbicidal rate of 70% or more and less than 90%)
herbicidal effect on L: windgrass [13]: 0 (Herbicidal rate of 5% or less (almost no effect))
herbicidal effect on M: velvetleaf [14]: 4 (Herbicidal rate of 70% or more and less than 90%)
herbicidal effect on N: redroot pigweed [15]: 5 (Herbicidal rate of 90% or more (almost completely withered))
herbicidal effect on O: lambsquarters [16]: 5 (Herbicidal rate of 90% or more (almost completely withered))
herbicidal effect on P: chickweed [17]: 0 (Herbicidal rate of 5% or less (almost no effect))
herbicidal effect on R: persian speedwell [18]: 3 (Herbicidal rate of 40% or more and less than 70%)
F: southern crabgrass, herbicidal effect (criteria 0-5) [19]: 5 (Herbicidal rate of 90% or more (almost completely withered))
G: green foxtail, herbicidal effect (criteria 0-5) [20]: 5 (Herbicidal rate of 90% or more (almost completely withered))
H: barnyard grass, herbicidal effect (criteria 0-5) [21]: 5 (Herbicidal rate of 90% or more (almost completely withered))
I: wild oat, herbicidal effect (criteria 0-5) [22]: 5 (Herbicidal rate of 90% or more (almost completely withered))
J: blackgrass, herbicidal effect (criteria 0-5) [23]: 4 (Herbicidal rate of 70% or more and less than 90%)
K: Italian ryegrass, herbicidal effect (criteria 0-5) [24]: 5 (Herbicidal rate of 90% or more (almost completely withered))
L: windgrass, herbicidal effect (criteria 0-5) [25]: 5 (Herbicidal rate of 90% or more (almost completely withered))
M: velvetleaf, herbicidal effect (criteria 0-5) [26]: 5 (Herbicidal rate of 90% or more (almost completely withered))
N: redroot pigweed, herbicidal effect (criteria 0-5) [27]: 5 (Herbicidal rate of 90% or more (almost completely withered))
O: lambsquarters, herbicidal effect (criteria 0-5) [28]: 5 (Herbicidal rate of 90% or more (almost completely withered))
P: chickweed, herbicidal effect (criteria 0-5) [29]: 5 (Herbicidal rate of 90% or more (almost completely withered))
R: persian speedwell, herbicidal effect (criteria 0-5) [30]: 5 (Herbicidal rate of 90% or more (almost completely withered))

From patent US20230085307A1, “PYRIDAZINONE COMPOUND AND HERBICIDE” (NISSAN CHEMICAL CORPORATION, priority 2019, published 2023)
